Experimental data taken from the supplement of paper PMC10307832.

Tests used:
Experiment in all cases: relative viability (nuclei count vs DMSO), 5 days (fraction); higher = more cells survive
Navitoclax = compound: CC1(C)CCC(c2ccc(Cl)cc2)=C(CN2CCN(c3ccc(C(=O)NS(=O)(=O)c4ccc(N[C@H](CCN5CCOCC5)CSc5ccccc5)c(S(=O)(=O)C(F)(F)F)c4)cc3)CC2)C1 [Navitoclax]
In short: (§1)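 Lung cancer cell lines were seeded into 1536-well plates, kept overnight at 37 °C and pinned with five library-drug doses (not always all listed) spaced by √10. After 5 days, nuclei were Hoechst-stained, imaged at 4× and counted with MetaXpress. Viability is treated-well nuclei over vehicle-well nuclei, taken as a median across plates. Plates needed control CV below 25% and at least one doubling.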

C-75 = compound: CCCCCCCC[C@H]1[C@@H](C(=C)C(=O)O1)C(=O)O [C-75]
In short: as §1

AZD7762 = compound: NC(=O)Nc1cc(-c2cccc(F)c2)sc1C(=O)N[C@H]1CCCNC1 [AZD7762]
In short: as §1

[1] = compound: O=C(O)c1ccc(-c2c[nH]c3ncc(-c4ccccc4)cc23)cc1C1CCCC1
In short: as §1

XAV939 = compound: Oc1nc(-c2ccc(C(F)(F)F)cc2)nc2c1CSCC2 [XAV939]
In short: as §1

| Cell Line | relative viability (Navitoclax; 0.005 µM) | relative viability (Navitoclax; 0.01581 µM) | relative viability (Navitoclax; 0.05 µM) | relative viability (Navitoclax; 0.1581 µM) | relative viability (Navitoclax; 0.5 µM) | relative viability (Navitoclax; 0.5 µM, anchor plate) | relative viability (C-75; 0.08 µM) | relative viability (C-75; 0.253 µM) | relative viability (C-75; 0.8 µM) | relative viability (C-75; 2.53 µM) | relative viability (C-75; 8 µM) | relative viability (AZD7762; 0.01 µM) | relative viability (AZD7762; 0.03162 µM) | relative viability (AZD7762; 0.1 µM) | relative viability (AZD7762; 0.2 µM, anchor plate) | relative viability (AZD7762; 0.3162 µM) | relative viability (AZD7762; 1 µM) | relative viability ([1]; 0.04 µM) | relative viability ([1]; 0.1265 µM) | relative viability ([1]; 0.4 µM) | relative viability ([1]; 1.265 µM) | relative viability (XAV939; 0.08 µM) | relative viability (XAV939; 0.253 µM) | relative viability (XAV939; 0.8 µM) | relative viability (XAV939; 2.53 µM) |
| --- | --- | --- | --- | --- | --- | --- | --- | --- | --- | --- | --- | --- | --- | --- | --- | --- | --- | --- | --- | --- | --- | --- | --- | --- | --- |
| LC-2-ad | 0.961 | 1.07 | 0.925 | 0.948 | 0.991 | 0.445 | 1.05 | 1.02 | 0.93 | 0.789 | 0.986 | 0.992 | 1.1 | 0.998 | 0.86 | 0.908 | 0.644 | 0.973 | 1.1 | 0.933 | 0.692 | 1.03 | 0.904 | 0.953 | 1 |
| NCI-H1299 | 1 | 1.05 | 1 | 1.01 | 1.03 | 1.03 | 1.01 | 0.98 | 1.02 | 0.899 | 1.03 | 1.06 | 1.01 | 1.06 |  | 1.02 | 0.56 | 1.03 | 1.04 | 0.957 | 0.878 | 1.04 | 0.939 | 1.06 | 1.03 |
| HCC-15 | 0.986 | 1.14 | 0.838 | 0.99 | 0.947 | 0.696 | 1 | 0.965 | 0.968 | 0.798 | 0.925 | 1.02 | 0.907 | 1.02 | 1.24 | 0.969 | 1.03 | 1.03 | 1.07 | 0.965 | 0.586 | 1.14 | 0.932 | 0.96 | 0.971 |
| NCI-H661 | 0.985 | 0.995 | 1.05 | 0.916 | 0.935 |  | 0.983 | 1.01 | 0.98 | 0.911 | 0.94 | 1.03 | 1.11 | 1.1 |  | 0.979 | 0.558 | 0.915 | 1.02 | 0.969 | 1.01 | 1.02 | 0.952 | 0.945 | 0.956 |
| NCI-H3122 | 1.01 | 0.965 | 1.06 | 0.989 | 0.972 | 1.01 | 1 | 1 | 0.996 | 0.692 | 0.992 | 1.01 | 1.02 | 1.01 | 0.983 | 0.88 | 1.04 | 0.986 | 1.04 | 0.959 | 0.946 | 1.01 | 0.936 | 1.02 | 0.966 |
| EKVX | 1.03 | 1.28 | 0.87 | 0.969 | 0.915 | 0.954 | 0.971 | 0.967 | 0.847 |  | 1.02 | 0.947 | 1.03 | 0.929 | 0.696 | 0.962 | 0.8 | 0.962 | 1.14 | 1.01 | 0.865 | 1.04 | 0.852 | 0.833 | 0.694 |
| SK-MES-1 | 1.01 | 1.17 | 1.11 | 0.95 | 1.04 | 1.25 | 1.01 | 1.02 | 0.937 | 0.93 | 0.943 | 1 | 1.03 | 1.05 |  | 0.818 | 0.372 | 1 | 1.05 | 0.943 | 0.755 | 1.07 | 0.906 | 0.919 | 0.858 |
| LK-2 | 1.02 | 1.03 | 1.11 | 0.997 | 1.02 | 0.886 | 0.911 | 1.25 | 1.02 | 0.841 | 0.706 | 1.05 | 1.12 | 0.955 | 0.467 | 0.938 | 0.776 | 1 | 1.06 | 0.872 | 0.944 | 1.06 | 0.877 | 1.01 | 0.755 |
| NCI-H1755 | 1.01 | 1.02 | 0.897 | 0.957 | 0.966 | 0.988 | 0.954 | 0.972 | 0.946 | 0.845 | 0.982 | 1.01 | 1.02 | 1.09 | 0.458 | 0.936 | 0.471 | 1.01 | 1.09 | 1.04 | 0.956 | 0.961 | 0.834 | 0.931 | 0.876 |
| LCLC-103H | 1.02 | 1.03 | 0.83 | 1.04 | 1.05 |  | 0.919 | 0.998 | 0.909 | 0.788 | 1.03 | 1.03 | 0.974 | 1.02 | 0.796 | 0.907 | 0.992 | 1.01 | 1.08 | 0.991 | 1.09 | 1.08 | 0.914 | 0.92 | 0.831 |
| NCI-H23 | 0.925 | 0.979 | 0.98 | 0.896 | 0.962 | 0.869 | 0.897 | 1.07 | 0.867 | 0.687 | 0.44 | 0.866 | 1.07 | 0.993 | 0.273 | 0.693 | 0.278 | 0.947 | 1.22 | 0.812 | 0.699 | 0.973 | 0.796 | 0.982 | 0.838 |
| COR-L 105 | 0.808 | 1.21 | 0.965 | 0.98 | 0.922 | 0.841 | 0.939 | 0.876 | 0.877 | 0.755 | 0.801 | 0.949 | 0.918 | 0.822 |  | 0.613 | 0.502 | 1 | 0.951 | 0.945 | 0.88 | 1.03 | 0.857 | 0.78 | 0.6 |
| EMC-BAC-2 | 0.924 | 1.02 | 0.981 | 0.932 | 0.976 | 1.16 | 0.959 | 0.952 | 0.908 | 0.828 | 0.921 | 1.05 | 1.02 | 1.05 | 1.17 | 0.995 | 0.975 | 0.993 | 1.04 | 0.974 | 0.899 | 1.01 | 0.969 | 0.869 | 0.655 |
| NCI-H727 | 0.886 | 1.18 |  | 0.87 | 0.894 | 0.491 | 0.824 | 1.4 | 0.968 | 0.73 | 1.04 | 0.838 | 1.18 | 0.953 | 0.576 | 0.764 | 0.444 | 0.995 | 1.01 | 0.986 | 0.928 | 1.11 | 0.731 | 0.899 | 0.975 |
